Like-named read-outs stand apart in the source and are kept apart here.
Tests used:
EGFR wild type = target: T1, EGFR wild type (Homo sapiens, UniProt P00533); assay: Inhibition of EGFR wild type biochemical enzymatic activity (HTRF); details: EGFR WT, 1 mM ATP, 1 h, room temperature, read-out: IC50 (nM) @WT
T1 construct: purchased Carna Bio
How it was run: (§1)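 Time-resolved FRET assay of EGFR substrate phosphorylation. Conditions: 1 μM TK substrate-biotin, 1 mM ATP, Mg/Mn buffer, 1 h at RT. IC50 from 4-parameter curve fit.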

EGFR L858R = target: T2, EGFR L858R (Homo sapiens, UniProt P00533, L858R); assay: Inhibition of EGFR L858R biochemical enzymatic activity (HTRF); details: 1 mM ATP, 1 h, room temperature, read-out: IC50 (nM) @L858R
T2 construct: purchased Carna Bio
T2 sequence (P00533 25-1210 L858R): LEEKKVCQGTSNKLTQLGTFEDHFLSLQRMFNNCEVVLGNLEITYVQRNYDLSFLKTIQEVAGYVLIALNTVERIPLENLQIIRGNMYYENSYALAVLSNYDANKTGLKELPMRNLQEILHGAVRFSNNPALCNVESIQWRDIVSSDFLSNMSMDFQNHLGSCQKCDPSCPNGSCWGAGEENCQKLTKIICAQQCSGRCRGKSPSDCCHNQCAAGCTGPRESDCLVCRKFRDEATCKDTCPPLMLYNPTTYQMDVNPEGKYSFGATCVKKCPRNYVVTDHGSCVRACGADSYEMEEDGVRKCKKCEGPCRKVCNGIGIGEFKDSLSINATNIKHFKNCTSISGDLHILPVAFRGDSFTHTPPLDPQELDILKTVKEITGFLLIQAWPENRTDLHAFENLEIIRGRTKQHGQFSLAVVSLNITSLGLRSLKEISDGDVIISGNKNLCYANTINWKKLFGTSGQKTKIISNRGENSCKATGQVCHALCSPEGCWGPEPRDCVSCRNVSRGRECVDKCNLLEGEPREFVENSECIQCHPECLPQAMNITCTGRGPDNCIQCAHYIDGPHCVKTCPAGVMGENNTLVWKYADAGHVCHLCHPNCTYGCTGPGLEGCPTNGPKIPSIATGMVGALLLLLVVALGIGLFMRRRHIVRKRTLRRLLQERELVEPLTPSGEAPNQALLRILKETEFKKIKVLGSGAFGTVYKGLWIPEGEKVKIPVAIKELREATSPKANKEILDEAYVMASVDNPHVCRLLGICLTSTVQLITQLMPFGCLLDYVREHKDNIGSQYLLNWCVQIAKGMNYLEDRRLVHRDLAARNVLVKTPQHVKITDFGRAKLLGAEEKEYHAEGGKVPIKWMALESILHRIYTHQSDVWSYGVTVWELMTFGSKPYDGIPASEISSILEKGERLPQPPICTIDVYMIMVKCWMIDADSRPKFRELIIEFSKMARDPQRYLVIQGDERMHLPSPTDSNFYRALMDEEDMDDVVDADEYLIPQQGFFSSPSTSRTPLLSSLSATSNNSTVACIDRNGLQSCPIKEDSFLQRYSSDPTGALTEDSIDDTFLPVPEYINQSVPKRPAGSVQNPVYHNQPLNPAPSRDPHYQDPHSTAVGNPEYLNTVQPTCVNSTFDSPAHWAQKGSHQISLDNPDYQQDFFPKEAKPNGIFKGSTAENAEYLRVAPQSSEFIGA
How it was run: as §1

EGFR L858R/T790M = target: T3, EGFR L858R/T790M (Homo sapiens, UniProt P00533, L858R/T790M); assay: Inhibition of EGFR L858R/T790M biochemical enzymatic activity (HTRF); details: EGFR L858R-T790M, 1 mM ATP, 1 h, room temperature, read-out: IC50 (nM) @L858R-T790M
T3 construct: purchased Carna Bio
T3 sequence (P00533 25-1210 T790M/L858R): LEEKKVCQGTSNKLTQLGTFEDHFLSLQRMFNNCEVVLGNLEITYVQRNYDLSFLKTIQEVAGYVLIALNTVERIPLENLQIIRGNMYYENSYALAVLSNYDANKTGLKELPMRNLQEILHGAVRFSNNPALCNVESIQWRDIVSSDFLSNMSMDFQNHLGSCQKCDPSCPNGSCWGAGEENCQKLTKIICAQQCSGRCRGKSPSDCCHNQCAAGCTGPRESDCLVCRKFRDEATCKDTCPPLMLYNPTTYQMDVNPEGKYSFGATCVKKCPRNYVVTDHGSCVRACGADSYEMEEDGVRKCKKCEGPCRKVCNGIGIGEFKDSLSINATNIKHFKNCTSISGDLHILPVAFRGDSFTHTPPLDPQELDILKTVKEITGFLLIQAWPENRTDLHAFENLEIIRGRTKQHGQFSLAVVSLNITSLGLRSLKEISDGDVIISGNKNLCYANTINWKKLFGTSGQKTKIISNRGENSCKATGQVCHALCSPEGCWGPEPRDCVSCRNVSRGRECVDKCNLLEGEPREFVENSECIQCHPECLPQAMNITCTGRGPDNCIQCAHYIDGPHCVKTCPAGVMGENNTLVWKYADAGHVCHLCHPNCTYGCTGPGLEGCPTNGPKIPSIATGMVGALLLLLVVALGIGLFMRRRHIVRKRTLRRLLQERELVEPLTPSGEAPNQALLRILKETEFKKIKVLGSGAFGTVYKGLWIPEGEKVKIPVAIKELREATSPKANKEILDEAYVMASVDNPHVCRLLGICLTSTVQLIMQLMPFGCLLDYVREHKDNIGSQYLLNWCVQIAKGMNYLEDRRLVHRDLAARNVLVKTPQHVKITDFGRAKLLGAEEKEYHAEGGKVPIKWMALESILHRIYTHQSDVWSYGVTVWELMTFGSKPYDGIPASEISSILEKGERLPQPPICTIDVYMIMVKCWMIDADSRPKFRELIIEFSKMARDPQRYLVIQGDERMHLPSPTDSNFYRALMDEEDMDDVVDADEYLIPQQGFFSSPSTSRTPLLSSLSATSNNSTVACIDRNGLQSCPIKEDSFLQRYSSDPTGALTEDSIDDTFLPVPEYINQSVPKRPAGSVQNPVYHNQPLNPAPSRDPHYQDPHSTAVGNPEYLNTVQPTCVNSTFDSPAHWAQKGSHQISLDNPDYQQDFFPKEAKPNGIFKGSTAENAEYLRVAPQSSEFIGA
How it was run: as §1

EGFR Exon19Del = target: T4, EGFR Exon19Del (Homo sapiens, UniProt P00533, DEL746-750); assay: Inhibition of EGFR Exon19Del biochemical enzymatic activity (HTRF); details: EGFR Del19, 1 mM ATP, 1 h, room temperature, read-out: IC50 @Del19
T4 construct: purchased Carna Bio
How it was run: as §1

EGFR Exon19Del/T790M = target: T5, EGFR Exon19Del/T790M (Homo sapiens, UniProt P00533, DEL746-750/T790M); assay: Inhibition of EGFR Exon19Del/T790M biochemical enzymatic activity (HTRF); details: EGFR Del19-T790M, 1 mM ATP, 1 h, room temperature, read-out: IC50 (nM) @Del19-T790M
T5 construct: purchased Carna Bio
T5 sequence (P00533 with tags, fused parts or gaps DEL746-750/T790M limits assumed): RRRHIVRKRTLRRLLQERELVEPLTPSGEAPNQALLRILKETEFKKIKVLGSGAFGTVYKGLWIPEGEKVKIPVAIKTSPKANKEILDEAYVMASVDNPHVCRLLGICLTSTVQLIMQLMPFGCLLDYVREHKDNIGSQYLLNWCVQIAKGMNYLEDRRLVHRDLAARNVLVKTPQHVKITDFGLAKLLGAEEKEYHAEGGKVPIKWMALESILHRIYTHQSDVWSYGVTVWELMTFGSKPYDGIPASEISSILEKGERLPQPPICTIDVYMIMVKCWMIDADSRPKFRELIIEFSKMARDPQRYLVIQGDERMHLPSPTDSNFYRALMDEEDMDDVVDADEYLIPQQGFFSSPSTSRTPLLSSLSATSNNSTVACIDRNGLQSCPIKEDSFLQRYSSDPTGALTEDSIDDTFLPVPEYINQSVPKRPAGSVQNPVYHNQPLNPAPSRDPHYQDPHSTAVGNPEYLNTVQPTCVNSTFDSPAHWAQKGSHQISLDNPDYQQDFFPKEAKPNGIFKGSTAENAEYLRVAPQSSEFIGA
How it was run: as §1

EGFR[T790M/C797S/L858R] = target: T6, EGFR[T790M/C797S/L858R] (Homo sapiens, UniProt P00533, C797S/L858R/T790M); assay: Inhibition of EGFR[T790M/C797S/L858R] biochemical enzymatic activity (HTRF); details: EGFR T790M-C797S-L858R, 1 mM ATP, 1 h, room temperature, read-out: IC50 (nM) @T790M- C797S - L858R
T6 construct: purchased Carna Bio
T6 sequence (P00533 25-1210 T790M/C797S/L858R): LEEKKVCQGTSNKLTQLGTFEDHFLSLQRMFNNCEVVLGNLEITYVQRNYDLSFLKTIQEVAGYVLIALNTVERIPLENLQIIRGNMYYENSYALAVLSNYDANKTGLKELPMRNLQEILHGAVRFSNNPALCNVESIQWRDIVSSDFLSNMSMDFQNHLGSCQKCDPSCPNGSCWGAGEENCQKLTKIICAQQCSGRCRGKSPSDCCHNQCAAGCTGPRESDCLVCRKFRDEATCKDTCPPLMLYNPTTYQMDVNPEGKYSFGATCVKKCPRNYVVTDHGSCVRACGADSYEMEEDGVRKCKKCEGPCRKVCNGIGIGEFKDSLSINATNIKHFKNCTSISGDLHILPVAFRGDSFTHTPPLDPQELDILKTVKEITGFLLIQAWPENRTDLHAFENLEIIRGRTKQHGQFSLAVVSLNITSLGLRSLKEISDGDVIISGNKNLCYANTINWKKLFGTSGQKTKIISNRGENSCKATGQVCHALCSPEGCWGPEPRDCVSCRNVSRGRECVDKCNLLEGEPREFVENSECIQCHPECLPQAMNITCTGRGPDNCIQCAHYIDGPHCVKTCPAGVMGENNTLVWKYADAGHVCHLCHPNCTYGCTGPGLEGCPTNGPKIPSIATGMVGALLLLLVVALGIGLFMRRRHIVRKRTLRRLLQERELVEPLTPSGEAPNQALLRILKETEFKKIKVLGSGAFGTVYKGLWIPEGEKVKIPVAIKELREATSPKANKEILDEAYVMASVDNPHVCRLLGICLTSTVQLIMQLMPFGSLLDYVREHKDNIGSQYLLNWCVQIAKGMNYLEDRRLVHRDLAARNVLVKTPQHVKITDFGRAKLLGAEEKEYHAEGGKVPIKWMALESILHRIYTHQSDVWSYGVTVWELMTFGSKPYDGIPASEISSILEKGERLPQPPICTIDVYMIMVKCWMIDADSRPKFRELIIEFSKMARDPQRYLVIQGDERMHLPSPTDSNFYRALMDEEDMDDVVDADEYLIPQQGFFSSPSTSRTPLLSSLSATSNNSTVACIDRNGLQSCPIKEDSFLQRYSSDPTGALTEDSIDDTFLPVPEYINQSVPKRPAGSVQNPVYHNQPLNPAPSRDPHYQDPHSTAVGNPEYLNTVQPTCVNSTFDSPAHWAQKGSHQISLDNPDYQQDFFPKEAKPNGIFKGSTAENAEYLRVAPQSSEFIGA
How it was run: as §1

[1] = target: T7, EGFR[T790M/C797S/d746-750] (Homo sapiens, UniProt P00533, C797S/DEL746-750/T790M); assay: Inhibition of EGFR[T790M/C797S/d746-750] biochemical enzymatic activity (HTRF); details: EGFR T790M-C797S-Del19, 1 mM ATP, 1 h, room temperature, read-out: IC50 (nM) @T790M - C797S - Del19
T7 construct: purchased Carna Bio
T7 sequence (P00533 with tags, fused parts or gaps DEL746-750/T790M/C797S limits assumed): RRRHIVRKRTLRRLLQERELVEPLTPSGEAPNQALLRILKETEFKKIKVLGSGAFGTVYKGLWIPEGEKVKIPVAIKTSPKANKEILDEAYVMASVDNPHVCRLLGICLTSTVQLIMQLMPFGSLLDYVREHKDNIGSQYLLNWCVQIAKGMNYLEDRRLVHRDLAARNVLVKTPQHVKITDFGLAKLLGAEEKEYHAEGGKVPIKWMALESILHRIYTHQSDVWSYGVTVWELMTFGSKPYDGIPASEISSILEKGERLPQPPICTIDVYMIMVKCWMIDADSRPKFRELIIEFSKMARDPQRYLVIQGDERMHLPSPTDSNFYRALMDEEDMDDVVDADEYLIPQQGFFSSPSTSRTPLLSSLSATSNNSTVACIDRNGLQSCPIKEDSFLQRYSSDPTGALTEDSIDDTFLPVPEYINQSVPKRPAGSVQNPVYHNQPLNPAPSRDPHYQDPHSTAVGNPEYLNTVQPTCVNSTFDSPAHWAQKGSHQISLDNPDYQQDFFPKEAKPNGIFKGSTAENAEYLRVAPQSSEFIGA
How it was run: as §1

EGFR (d746-750 C797S) = target: T8, EGFR (d746-750 C797S) (Homo sapiens, UniProt P00533, C797S/DEL746-750); assay: Inhibition of EGFR (d746-750 C797S) biochemical enzymatic activity (HTRF); details: EGFR Del19-C797S, 1 mM ATP, 1 h, room temperature, read-out: IC50 (nM) @Del19-C797S
T8 construct: purchased signalchem
How it was run: as §1

EGFR (C797S L858R) = target: T9, EGFR (C797S L858R) (Homo sapiens, UniProt P00533, C797S/L858R); assay: Inhibition of EGFR (C797S L858R) biochemical enzymatic activity (HTRF); details: EGFR L858-C797S, 1 mM ATP, 1 h, room temperature, read-out: IC50 (nM) @L858-C797S
T9 construct: purchased signalchem
How it was run: as §1

[2] = test system: Ba/F3 cells expressing EGFR mutations; assay: Cell proliferation assay, Ba/F3 cells expressing EGFR mutations (CellTiter-Glo, 72 hours); type: cell-based; details: Mus musculus, BaF3, 72 h
How it was run: (§2)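 In RPMI1640 medium (PC-9 with 10% FBS), each cell line was seeded at its own density: Ba/F3 5000 and PC-9 500 per well. A compound series was added the next day, with a time-zero viability plate read in parallel. Percent proliferation was subtracted for G0 and referenced to DMSO, and GI50 was derived by curve fitting.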

PC-9 = assay: Cell proliferation assay, PC-9 cells (CellTiter-Glo, 72 hours); type: cell-based; details: Homo sapiens, PC-9, 72 h, PC9 cells, read-out: GI50 PC9
How it was run: as §2

A-431 = assay: Cell proliferation assay, A-431 cells (GI50, Table 6); type: cell-based; details: Homo sapiens, A-431, A-431 cells
[3] = BaF3 cells, EGFR DEL19 - C797S, read-out: GI50 DEL19 - C797S/BaF3
[4] = BaF3 cells, EGFR DEL19 - T790-C797S, read-out: GI50 DEL19 - T790-C797S/BaF3
[5] = BaF3 cells, EGFR L858R - C797S, read-out: GI50 L858R - C797S/BaF3
[6] = BaF3 cells, EGFR L858R - T790-C797S, read-out: GI50 L858R - T790-C797S/BaF3
[7] = BaF3 cells, EGFR L858R - T790M, read-out: GI50 L858R - T790M/BaF3
[8] = BaF3 cells, EGFR L858R, read-out: GI50 L858R/BaF3
[9] = EGFR DEL19 - T790M, read-out: GI50 DEL19 - T790M

Structure (SMILES) | IC50 (EGFR wild type) | IC50 (EGFR L858R) | IC50 (EGFR L858R/T790M) | IC50 (EGFR Exon19Del) | IC50 (EGFR Exon19Del/T790M) | IC50 (EGFR[T790M/C797S/L858R]) | IC50 [1] | IC50 (EGFR (d746-750 C797S)) | IC50 (EGFR (C797S L858R)) | GI50 [2, 3] | GI50 [2, 4] | GI50 [2, 5] | GI50 [2, 6] | GI50 [2, 7] | GI50 [2, 8] | GI50 [2, 9] | GI50 (PC-9) | GI50 (A-431)
CN(C)CCN(C)c1ccc2nc3n(c2c1)C12CCC(CC1)CN(CCOc1c(cnn1C)-c1cc(cn(C)c1=O)C(=O)N3)C2 [Example A124] | 2790 nM | 139 nM | 334 nM | 15 nM | 9.8 nM | 72 nM | 7.7 nM | 11 nM | 76 nM | 7.2 nM | 38 nM | 32 nM | 11 nM | 47 nM | 5.2 nM | 26 nM | 27 nM | 3.79 µM
CN(C)CCCN(C)c1ccc2nc3n(c2c1)C12CCC(CC1)CN(CCOc1c(cnn1C)-c1cc(cn(C)c1=O)C(=O)N3)C2 [Example A125] | 4060 nM | 189 nM | 582 nM | 29 nM | 18 nM | 359 nM | 15 nM | 25 nM | 128 nM | 7.9 nM | 43 nM | 34 nM | 21 nM | 64 nM | 7 nM | 30 nM | 35 nM | 3.74 µM
CN1CC2CN(c3ccc4nc5n(c4c3)C34CCC(CC3)CN(CCOc3c(cnn3C)-c3cc(cn(C)c3=O)C(=O)N5)C4)CC2C1 (centres unmarked) [Example A126] | > 5000 nM | 95 nM | 169 nM | 13 nM | 12 nM | 52 nM | 8.9 nM | 9.9 nM | 71 nM | 7.3 nM | 36 nM | 29 nM | 18 nM | 50 nM | 5.5 nM | 26 nM | 34 nM | 4.09 µM
CN1CCC2CN(c3ccc4nc5n(c4c3)C34CCC(CC3)CN(CCOc3c(cnn3C)-c3cc(cn(C)c3=O)C(=O)N5)C4)CC21 (centres unmarked) [Example A127] | 4880 nM | 118 nM | 211 nM | 15 nM | 10 nM | 39 nM | 6.1 nM | 9.2 nM | 69 nM | 8.5 nM | 36 nM | 38 nM | 21 nM | 52 nM | 7.2 nM | 26 nM | 34 nM | 4.68 µM
Cn1ncc2c1OCCN1CC3CCC(CC3)(C1)n1c(nc3ccc(N4CCN(C5CC5)CC4)cc31)NC(=O)c1cc-2c(=O)n(C)c1 [Example A128] | > 5000 nM | 202 nM | 307 nM | 11 nM | 8 nM | 33 nM | 4.7 nM | 4.9 nM | 49 nM | 13 nM | 90 nM | 65 nM | 47 nM | 119 nM | 11 nM | 66 nM | 61 nM | 2.65 µM

Next, values leading:

IC50 (EGFR wild type) | IC50 (EGFR L858R) | IC50 (EGFR L858R/T790M) | IC50 (EGFR Exon19Del) | IC50 (EGFR Exon19Del/T790M) | IC50 (EGFR[T790M/C797S/L858R]) | IC50 [1] | IC50 (EGFR (d746-750 C797S)) | IC50 (EGFR (C797S L858R)) | GI50 [2, 3] | GI50 [2, 4] | GI50 [2, 5] | GI50 [2, 6] | GI50 [2, 7] | GI50 [2, 8] | GI50 [2, 9] | GI50 (PC-9) | GI50 (A-431) | Structure (SMILES)
> 5000 nM | 1480 nM | 15 nM | 150 nM | 6.5 nM | 23 nM | 13 nM | 2200 nM | 112 nM | 95 nM | 20 nM | 736 nM | 51 nM | 98 nM | 751 nM | 22 nM | 410 nM | 4.39 µM | Cc1cc2cc(n1)-c1cnn(C)c1OCCN1CC3CCC(CC3)(C1)n1c(nc3ccccc31)NC2=O [Example B1, 15,21-Dimethyl-23-oxa-2,9,11,16,20,21,26-heptaazaheptacyclo[26.2.2.1^{1,26}.1^{13,17}.0^{2,10}.0^{3,8}.0^{18,22}]tetratriaconta-3,5,7,9,13,15,17(34),18(22),19-nonaen-12-one]
> 5000 nM | 320 nM | 25 nM | 47 nM | 13 nM | 36 nM | 20 nM | 560 nM | 28 nM | 18 nM | 4.7 nM | 153 nM | 10 nM | 14 nM | 125 nM | 5 nM | 102 nM | 3.17 µM | Cc1cc2cc(n1)-c1cnn(C)c1OCCN1CC3CCC(CC3)(C1)n1c(nc3ccc(N4CCOCC4)cc31)NC2=O [Example B2, 15,21-Dimethyl-5-(morpholin-4-yl)-23-oxa-2,9,11,16,20,21,26-heptaazaheptacyclo[26.2.2.1^{1,26}.1^{13,17}.0^{2,10}.0^{3,8}.0^{18,22}]tetratriaconta-3,5,7,9,13,15,17(34),18(22),19-nonaen-12-one]
954 nM | 24 nM | 7.2 nM | 7 nM | 4.3 nM | 11 nM | 7.3 nM | 36 nM | 3.1 nM | 7.5 nM | 1.7 nM | 58 nM | 5.2 nM | 11 nM | 41 nM | 2.5 nM | 52 nM | 2.02 µM | Cc1cc2cc(n1)-c1cnn(C)c1OCCN1CC3CCC(CC3)(C1)n1c(nc3ccc(N4CCN(C)CC4)cc31)NC2=O [Example B3, 15,21-dimethyl-5-(4-methylpiperazin-1-yl)-23-oxa-2,9,11,16,20,21,26-heptaazaheptacyclo[26.2.2.1^{1,26}.1^{13,17}.0^{2,10}.0^{3,8}.0^{18,22}]tetratriaconta-3,5,7,9,13,15,17(34),18(22),19-nonaen-12-one]
> 5000 nM | > 5000 nM | 847 nM | 592 nM | 33 nM | 532 nM | 16 nM | 243 nM | 3630 nM | 125 nM | 61 nM | 342 nM | 42 nM | – | 612 nM | 57 nM | 292 nM | 3.53 µM | Cc1cc2cc(n1)-c1cnn(C)c1OCCN1CCCCC(C1)n1c(nc3ccccc31)NC2=O (centres unmarked) [Example B4, 15,21-Dimethyl-23-oxa-2,9,11,16,20,21,26-heptaazahexacyclo[24.4.1.1^{13,17}.0^{2,10}.0^{3,8}.0^{18,22}]dotriaconta-3,5,7,9,13(32),14,16,18(22),19-nonaen-12-one]

From US20260365670A1, “EGFR INHIBITORS AND USES THEREOF” (DIZAL (JIANGSU) PHARMACEUTICAL CO., LTD., priority 2022, published 2026)
